ChEMBL document CHEMBL6153166, “Innovative Protein Degraders for Targeted Cancer and Viral Therapy” (ACS Med Chem Lett, 2025)

biological target: Sequestosome-1 (Homo sapiens, UniProt Q13501); assay: Inhibition of biotin-labeled Halo/His-tagged p62 (unknown origin) incubated for 30 mins by AlphaLISA competition assay
Sequence (Q13501 whole entry): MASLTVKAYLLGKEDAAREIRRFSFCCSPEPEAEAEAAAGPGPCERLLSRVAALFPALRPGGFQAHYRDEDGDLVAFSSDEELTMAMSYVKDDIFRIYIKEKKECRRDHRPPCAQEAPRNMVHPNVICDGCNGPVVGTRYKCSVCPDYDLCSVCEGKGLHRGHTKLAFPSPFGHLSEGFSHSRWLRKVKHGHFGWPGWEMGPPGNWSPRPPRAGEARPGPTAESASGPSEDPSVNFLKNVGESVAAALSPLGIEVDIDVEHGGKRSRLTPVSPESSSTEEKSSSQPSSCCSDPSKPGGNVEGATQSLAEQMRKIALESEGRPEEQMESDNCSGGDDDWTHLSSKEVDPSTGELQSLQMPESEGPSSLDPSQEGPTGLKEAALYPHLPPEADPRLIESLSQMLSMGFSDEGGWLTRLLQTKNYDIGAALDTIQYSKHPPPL

IC50, ≤ 1500 nM:
CCc1cc2c(cc1N1CCN(C(=O)CCCN3C[C@H](NC(=O)[C@@H](N)CCCn4ccnc4N)C4(CC4)C3)CC1)C(C)(C)C1Nc3cc(C#N)ccc3C1C2=O (stereo partly specified)
CCc1cc2c(cc1N1CCN(C(=O)CCCN3C[C@H](NC(=O)[C@@H](N)CCCc4cncnc4N)C(C)(C)C3)CC1)C(C)(C)C1Nc3cc(C#N)ccc3C1C2=O (stereo partly specified)
CCc1cc2c(cc1N1CCN(C(=O)CCCN3CCC(C)(C)C(NC(=O)[C@@H](N)CCCn4ccnc4N)C3)CC1)C(C)(C)C1Nc3cc(C#N)ccc3C1C2=O (stereo partly specified)
CCc1cc2c(cc1N1CCN(C(=O)CCCN3C[C@H](NC(=O)[C@@H](N)CCCn4ccnc4N)C(C)(C)C3)CC1)C(C)(C)C1Nc3cc(C#N)ccc3C1C2=O (stereo partly specified)
CCc1cc2c(cc1N1CCN(C(=O)CCCN3CC[C@@H](NC(=O)[C@@H](N)CCCn4ccnc4N)C3)CC1)C(C)(C)C1Nc3cc(C#N)ccc3C1C2=O (stereo partly specified)
CCc1cc2c(cc1N1CCN(C(=O)CCCN3C[C@H](NC(=O)[C@@H](N)CCCc4cccnc4N)C(C)(C)C3)CC1)C(C)(C)C1Nc3cc(C#N)ccc3C1C2=O (stereo partly specified)
